# Measured values reported in ChEMBL document CHEMBL1136478, “New cerebrosides from Euphorbia peplis L.: antimicrobial activity evaluation” (2003).
# Tests used:
# [1] = test system: Mycobacterium tuberculosis; test: Antibacterial activity against human Mycobacterium tuberculosis H37Rv; assay type: functional
# [2] = test system: Mycobacterium tuberculosis; test: Antibacterial activity against Mycobacterium tuberculosis H242; assay type: functional
# [3] = test system: Mycobacterium tuberculosis; test: Antibacterial activity against Mycobacterium tuberculosis H331; assay type: functional
# Staphylococcus aureus = test: Antibacterial activity against Staphylococcus aureus ATCC 25923; assay type: functional
# [4] = test system: Mycobacterium tuberculosis; test: Antibacterial activity against Mycobacterium tuberculosis H172; assay type: functional
# Escherichia coli = test: Antibacterial activity against Escherichia coli ATCC 25922; assay type: functional
# Nakaseomyces glabratus [5] = test: Antifungal activity against Candida glabrata after 48 hr incubation; assay type: functional
# Cryptococcus neoformans [6] = test: Antifungal activity against Cryptococcus neoformans after 24 hr incubation
# Candida parapsilosis [7] = test: Antifungal activity against Candida parapsilosis after 24 hr incubation; assay type: functional; settings: Lodderomyces parapsilosis
# Candida albicans [8] = test: Antifungal activity against Candida albicans after 48 hr incubation; assay type: functional
# Nakaseomyces glabratus [9] = test: Antifungal activity against Candida glabrata after 24 hr incubation; assay type: functional
# Candida parapsilosis [10] = test: Antifungal activity against Candida parapsilosis after 48 hr incubation; assay type: functional; settings: Lodderomyces parapsilosis
# Candida albicans [11] = test: Antifungal activity against Candida albicans after 24 hr incubation; assay type: functional
# Cryptococcus neoformans [12] = test: Antifungal activity against Cryptococcus neoformans after 48 hr incubation
smiles,measurement,setting,value
O=C(O)c1cn(C2CC2)c2cc(N3CCNCC3)c(F)cc2c1=O [CIPROFLOXACIN],MIC,[1],0.25 µg/mL
same,MIC,[2],0.125 µg/mL
same,MIC,[3],0.125 µg/mL
same,MIC,Staphylococcus aureus,0.5 µg/mL
same,MIC,[4],0.25 µg/mL
CCCCCCCC/C=C/CCCCCCCCCCCCCC[C@@H](O)C(=O)N[C@@H](CO[C@@H]1OC(CO)[C@@H](O)C(O)C1O)[C@H](O)[C@H](O)CCC/C=C/CCCCCCCCC (some centres undefined),MIC,Escherichia coli,> 160 µg/mL
same,MIC,[1],40 µg/mL
same,MIC,Nakaseomyces glabratus [5],> 128 µg/mL
same,MIC,Cryptococcus neoformans [6],128 µg/mL
same,MIC,Candida parapsilosis [7],> 128 µg/mL
same,MIC,[2],80 µg/mL
same,MIC,Candida albicans [8],> 128 µg/mL
same,MIC,Nakaseomyces glabratus [9],> 128 µg/mL
same,MIC,[3],40 µg/mL
same,MIC,Staphylococcus aureus,> 160 µg/mL
same,MIC,Candida parapsilosis [10],> 128 µg/mL
same,MIC,Candida albicans [11],> 128 µg/mL
same,MIC,Cryptococcus neoformans [12],> 128 µg/mL
same,MIC,[4],40 µg/mL
CCCCCCCCC/C=C/CCC[C@@H](O)[C@@H](O)[C@H](CO[C@@H]1OC(CO)[C@@H](O)C(O)C1O)NC(=O)[C@H](O)CCCCCCCCCCCCCCCCCCCCCC (some centres undefined),MIC,Escherichia coli,> 160 µg/mL
same,MIC,[1],> 160 µg/mL
same,MIC,Nakaseomyces glabratus [5],> 128 µg/mL
same,MIC,Cryptococcus neoformans [6],128 µg/mL
same,MIC,Candida parapsilosis [7],> 128 µg/mL
same,MIC,[2],> 160 µg/mL
same,MIC,Candida albicans [8],> 128 µg/mL
same,MIC,Nakaseomyces glabratus [9],> 128 µg/mL
same,MIC,[3],> 160 µg/mL
same,MIC,Staphylococcus aureus,> 160 µg/mL
same,MIC,Candida parapsilosis [10],> 128 µg/mL
same,MIC,Candida albicans [11],> 128 µg/mL
same,MIC,Cryptococcus neoformans [12],> 128 µg/mL
same,MIC,[4],> 160 µg/mL
Clc1ccc(COC(Cn2ccnc2)c2ccc(Cl)cc2Cl)c(Cl)c1 (centres undefined) [MICONAZOLE],MIC,Nakaseomyces glabratus [5],10 µg/mL
same,MIC,Cryptococcus neoformans [6],0.156 µg/mL
same,MIC,Candida parapsilosis [7],0.625 µg/mL
same,MIC,Candida albicans [8],40 µg/mL
same,MIC,Nakaseomyces glabratus [9],5 µg/mL
same,MIC,Candida parapsilosis [10],1.25 µg/mL
same,MIC,Candida albicans [11],2.5 µg/mL
same,MIC,Cryptococcus neoformans [12],0.156 µg/mL
CCCCCCCC/C=C/CCCCCCCCCCCC[C@@H](O)C(=O)N[C@@H](CO[C@@H]1OC(CO)[C@@H](O)C(O)C1O)[C@H](O)[C@H](O)CCC/C=C/CCCCCCCCC (some centres undefined),MIC,Escherichia coli,160 µg/mL
same,MIC,[1],160 µg/mL
same,MIC,Nakaseomyces glabratus [5],> 128 µg/mL
same,MIC,Cryptococcus neoformans [6],64 µg/mL
same,MIC,Candida parapsilosis [7],> 128 µg/mL
same,MIC,[2],> 160 µg/mL
same,MIC,Candida albicans [8],> 128 µg/mL
same,MIC,Nakaseomyces glabratus [9],> 128 µg/mL
same,MIC,[3],> 160 µg/mL
same,MIC,Staphylococcus aureus,160 µg/mL
same,MIC,Candida parapsilosis [10],> 128 µg/mL
same,MIC,Candida albicans [11],> 128 µg/mL
same,MIC,Cryptococcus neoformans [12],> 128 µg/mL
same,MIC,[4],> 160 µg/mL
CCCCCCCCC/C=C/CC/C=C/[C@@H](O)[C@H](CO[C@@H]1OC(CO)[C@@H](O)C(O)C1O)NC(=O)[C@H](O)CCCCCCCCCCCCCC (some centres undefined),MIC,Escherichia coli,> 160 µg/mL
same,MIC,[1],> 160 µg/mL
same,MIC,Nakaseomyces glabratus [5],> 128 µg/mL
same,MIC,Cryptococcus neoformans [6],128 µg/mL
same,MIC,Candida parapsilosis [7],> 128 µg/mL
same,MIC,[2],> 160 µg/mL
same,MIC,Candida albicans [8],> 128 µg/mL
same,MIC,Nakaseomyces glabratus [9],> 128 µg/mL
same,MIC,[3],> 160 µg/mL
same,MIC,Staphylococcus aureus,> 160 µg/mL
same,MIC,Candida parapsilosis [10],> 128 µg/mL
same,MIC,Candida albicans [11],> 128 µg/mL
same,MIC,Cryptococcus neoformans [12],> 128 µg/mL
same,MIC,[4],> 160 µg/mL
